One data set deals with β5c of the human c-20S (Homo sapiens, UniProt P28074). The data set can be described thus: human constitutive proteasome β5c inhibition, suc-LLVY-AMC. In kind it is biochemical. To be noted: for SIapp IC50–β5c / IC50–Mtb20S: apparent selectivity index, rounded to three or fewer significant figures.
In data set [1] the test system is Mtb strain CDC1551 dop::MycoMarT7 expressing pupGGE. Put plainly: Accumulation of pupylated proteins. In kind it is cell-based, Mycobacterium tuberculosis.
The subject of data set [2] is Mtb strain MHD1441 (H37Rv WT + pSCK1). In kind it is cell-based, Mycobacterium tuberculosis. To be noted: 0.1-33 μM, day 4.
Another data set has as its system HepG2 cells. Put plainly: Viability of HepG2 cells. The settings on record: at 30 μM.
In a further data set the target is β5i of the human i-20S (Homo sapiens, UniProt P28062). In kind it is biochemical.
Another data set addresses Mtb20SOG (Mycobacterium tuberculosis, UniProt P9WHT9). The data set can be described thus: Mtb20SOG proteasome inhibition, suc-LLVY-AMC hydrolysis. In kind it is biochemical. To be noted: Mtb20S IC50, text values.
Another data set is described as follows: Kinetic solubility. In kind it is physicochemical. The settings on record: PBS buffer.

Converted amounts (≈) assume the structure as drawn. “And” between values parts separate entries of the source, which are not always exact repeats. Identical values can stand only once. Like-named read-outs stand apart in the source and are kept apart here.

Sequence of Mtb20SOG (P9WHT9 58-291): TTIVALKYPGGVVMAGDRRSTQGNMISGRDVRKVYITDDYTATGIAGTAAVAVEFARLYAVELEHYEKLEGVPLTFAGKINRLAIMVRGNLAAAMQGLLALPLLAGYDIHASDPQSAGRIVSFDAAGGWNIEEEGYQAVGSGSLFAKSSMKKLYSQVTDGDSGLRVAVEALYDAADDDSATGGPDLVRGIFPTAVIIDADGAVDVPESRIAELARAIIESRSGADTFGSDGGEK

Consider `O=C1CCc2cccc(c2)Oc2ccc(cc2)C[C@@H](C(=O)NCc2ccccc2F)NC(=O)[C@H](CC(=O)N2CCC[C@@H]2c2ccccc2)N1` [Macrocycle 6], for which, at β5c of the human c-20S, the “selectivity for Mtb20S over human c-20S” value is > 13,600 fold and > 10,000 fold; the “SIapp IC50–β5c / IC50–Mtb20S” value was >13,600. The “accumulation of pupylated proteins” value in data set [1] (macrocycle 6 at 1, 3, or 10 μM for 48 h, CFZ at 50 μM) is reported as “dose-dependently promoted the accumulation of pupylated proteins”. The “Pup-GFP accumulation (RFU normalized by OD)” value in data set [2] is on record as “dose-dependent increase of RFU”. For the same compound, the “cytotoxicity toward HepG2” value in the data set on HepG2 cells is on record as “no appreciable cytotoxicity”. Moreover, at β5i of the human i-20S, the “SIapp IC50–β5i / IC50–Mtb20S” value is given as >13,600; the “selectivity for Mtb20S over human i-20S” value was > 13,600 fold and > 10,000 fold.
The IC50 is the concentration that gives 50% inhibition. Higher therefore signals weaker potency in that assay. Regarding `O=C1CCc2cccc(c2)OCCCC[C@@H](C(=O)NCc2ccccc2F)NC(=O)[C@H](CC(=O)N2CCC[C@@H]2C2CC2)N1` [Macrocycle 11], at Mtb20SOG, the IC50 was found to be 6.5 nM.
Take `O=C1CCc2cccc(c2)OCCCC[C@@H](C(=O)NCc2ccccc2F)NC(=O)[C@H](CC(=O)N2CCC[C@@H]2c2ccccc2)N1` [Macrocycle 10]: on β5c of the human c-20S, the “selectivity for Mtb20S over human c-20S” value is given as > 14,400 fold and the “SIapp IC50–β5c / IC50–Mtb20S” value is given as >14,400. In addition, the “Pup-GFP accumulation (RFU normalized by OD)” value in data set [2] is recorded as “dose-dependent increase of RFU”. Moreover, the “cytotoxicity toward HepG2” value in the data set with HepG2 cells was “no appreciable cytotoxicity”. Further, at β5i of the human i-20S, the “SIapp IC50–β5i / IC50–Mtb20S” value is listed as >14,400 and the “selectivity for Mtb20S over human i-20S” value is > 14,400 fold.
In the case of `CC(C)C[C@H](NC(=O)[C@H](CCc1ccccc1)NC(=O)CN1CCOCC1)C(=O)N[C@@H](Cc1ccccc1)C(=O)N[C@@H](CC(C)C)C(=O)[C@@]1(C)CO1` [Carfilzomib, reference compound], the “accumulation of pupylated proteins” value in data set [1] is “led to accumulation of pupylated proteins”.
As for `O=C1CCCCCCCCC[C@@H](C(=O)NCc2cccc3ccccc23)NC(=O)[C@H](CC(=O)N2CCCC2)N1` [Macrocycle 3], the “SIapp IC50–β5c / IC50–Mtb20S” value on β5c of the human c-20S is on record as greater than 141. On β5i of the human i-20S, the “SIapp IC50–β5i / IC50–Mtb20S” value was greater than 141.
As to `O=C1CCc2cccc(c2)Oc2ccc(cc2)C[C@@H](C(=O)NCc2ccccc2F)NC(=O)[C@H](CC(=O)N2CCCC2)N1` [Macrocycle 5], the “SIapp IC50–β5c / IC50–Mtb20S” value at β5c of the human c-20S is listed as greater than 500.
By solubility is commonly meant the concentration that dissolves in the medium under given conditions. A higher solubility goes with a readily soluble substance. As to `O=C1CCCCCCCCOC[C@@H](C(=O)NCc2ccccc2F)NC(=O)[C@H](CC(=O)N2CCC[C@@H]2c2ccccc2)N1` [Macrocycle 9], at β5c of the human c-20S, the “SIapp IC50–β5c / IC50–Mtb20S” value was >14,000. For the same compound, the solubility at 24 h in the data set “Kinetic solubility” (pH 6.8) is 1.4 µg/mL (≈ 2.35 µM); in “Kinetic solubility” (pH 6.8, aqueous buffer, kinetic from dmso stock), less than 1.4 µg/mL. Moreover, the “SIapp IC50–β5i / IC50–Mtb20S” value on β5i of the human i-20S was >14,000.
As to `O=C1CCCCCCCCOC[C@@H](C(=O)NCc2cccc3ccccc23)NC(=O)[C@H](CC(=O)N2CCCC2)N1` [Macrocycle 4], the “SIapp IC50–β5c / IC50–Mtb20S” value on β5c of the human c-20S is given as greater than 984. Further, at β5i of the human i-20S, the “SIapp IC50–β5i / IC50–Mtb20S” value was greater than 984.
In the case of `O=C1CCCCCCCCCC[C@@H](C(=O)NCc2cccc3ccccc23)NC(=O)[C@H](CC(=O)N2CCCC2)N1` [Macrocycle 2], on β5c of the human c-20S, the “SIapp IC50–β5c / IC50–Mtb20S” value is greater than 674. Besides, the “SIapp IC50–β5i / IC50–Mtb20S” value on β5i of the human i-20S is recorded as greater than 674.

Values taken from paper PMC8194371 (Journal of medicinal chemistry, 2021).
